Test results: PMC5589751, “Synthesis, high-throughput screening and pharmacological characterization of β–lactam derivatives as TRPM8 antagonists” (Scientific Reports, 2017)

Columns and labels:
Kinetic solubility = format: physicochemical
hTRPV1 = target: T1, hTRPV1 (Homo sapiens, UniProt Q8NER1); assay: Whole-cell patch clamp in cells expressing hTRPV1; format: cell-based
T1 construct: expressed in transfected cells; host or cells: HEK
Method: Electrophysiological recording was carried out 1-3 d after cells seeded. Membrane currents and voltages were recorded by patch clamp using the whole-cell configuration. […] In calcium-free bath solution, CaCl2 was replaced with 5mM EGTA. For potassium and sodium recordings, CsCl was substituted by KCl and the pH was adjusted to pH 7.2 with KOH. Patch pipettes were prepared from thin-walled borosilicate glass capillaries (World Precision Instruments, Sarasota, FL, USA), pulled with a horizontal puller (P-97, Sutter Instruments, Novato, CA, USA) to have a tip resistance of 2-4 MΩ when filled with internal solutions. Data were sampled at 10 kHz (EPC10 amplifier with PatchMaster 2.53 software, HEKA Electronics, Lambrecht, Germany) and low-pass filtered at 3 kHz for analysis (PatchMaster 2.53 and GraphPad Prism 5, Graphpad Software, USA). The series resistance was <10 MΩ and to minimize voltage errors was compensated to 60-80%. All measurements were performed at 24-25°C. The temperature was adjusted with a water-cooled Peltier device placed at the inlet of the chamber and controlled by a feedback device (Automatic Temperature Controller TC-324B, Warner Instruments). Cold-sensitivity was investigated with a temperature decrease to 16-18 °C. page 44: Figure 1S. […] A) […] compound 41 (blue line). Pre-application of compound (20 s) was followed by coapplication with 500 […] 41. […] C) […] Pre-application of […] Voltage was held at -60 mV for all the experiments. […] (1 picture or pasted object on this page, not shown here)

T1 sequence (Q8NER1 whole entry): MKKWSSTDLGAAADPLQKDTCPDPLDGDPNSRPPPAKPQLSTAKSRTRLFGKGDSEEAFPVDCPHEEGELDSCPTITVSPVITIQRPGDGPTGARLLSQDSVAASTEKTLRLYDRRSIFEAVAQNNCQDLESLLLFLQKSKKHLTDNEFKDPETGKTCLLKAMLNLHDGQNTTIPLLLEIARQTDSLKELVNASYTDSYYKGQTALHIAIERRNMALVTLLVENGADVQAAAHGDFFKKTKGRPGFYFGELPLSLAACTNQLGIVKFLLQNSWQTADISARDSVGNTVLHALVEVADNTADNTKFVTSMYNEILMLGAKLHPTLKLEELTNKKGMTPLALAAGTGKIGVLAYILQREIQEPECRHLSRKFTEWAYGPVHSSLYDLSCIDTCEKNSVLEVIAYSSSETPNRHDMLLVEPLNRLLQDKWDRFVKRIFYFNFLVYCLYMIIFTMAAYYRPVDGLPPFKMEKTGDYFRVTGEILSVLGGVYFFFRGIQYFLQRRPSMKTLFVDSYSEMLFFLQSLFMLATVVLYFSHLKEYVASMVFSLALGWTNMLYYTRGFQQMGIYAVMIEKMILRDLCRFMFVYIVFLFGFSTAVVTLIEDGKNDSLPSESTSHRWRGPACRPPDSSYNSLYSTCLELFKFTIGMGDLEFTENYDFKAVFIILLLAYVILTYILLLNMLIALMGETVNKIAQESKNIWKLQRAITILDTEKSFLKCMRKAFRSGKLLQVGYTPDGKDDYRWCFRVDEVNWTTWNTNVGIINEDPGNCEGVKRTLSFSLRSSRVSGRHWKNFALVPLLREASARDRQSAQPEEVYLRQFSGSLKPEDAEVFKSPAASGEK

SMILES	Kinetic solubility (Kinetic solubility; 1% DMSO) [µM]	Kinetic solubility (Kinetic solubility; 5% DMSO) [µM]	IC50 (hTRPV1) [nM]	agonist activity (activation) on TRPV1 (hTRPV1; 1 µM compound, −60 mV)
CC(C)(C)OC(=O)N[C@@H](CCN1C(=O)CC1(Cc1ccccc1)C(=O)OCc1ccccc1)C(=O)OCc1ccccc1 (some centres unmarked) [Compound 41, 4R,S-Benzyl-4-benzyloxycarbonyl-1-[(3′S-benzyloxycarbonyl-3-tert-butoxycarbonylamino-3′-benzyloxycarbonyl)prop-1′-yl]-2-oxoazetidine]	< 10	< 10	> 1000	did not produce activation
CC1C(=O)N(CC[C@H](NC(=O)OC(C)(C)C)C(=O)OCc2ccccc2)C1(Cc1ccccc1)C(=O)OCc1ccccc1 (stereo partly drawn) [Compound 45, 4R,S-Benzyl-4-benzyloxycarbonyl-1-[(3′S-benzyloxycarbonyl-3′-tert-butoxycarbonylamino)prop-1′-yl]-(3R,S)-methyl-2-oxoazetidine]			> 1000	
